The values below come from ChEMBL document CHEMBL1201862, “PubChem BioAssay data set” (2004).

Activity calls are given as the source filed them. Where only a bound is given, the exact number is not on record here.

The target in assay [1] is T1, Polyadenylate-binding protein 1 (Homo sapiens, UniProt P11940). The experiment in a line: MLLE binding blockers, Cy5 peptide tracer – biochemical, fluorescence polarization, Cy5-PAM2 peptide, secondary, miRNA deadenylation inhibitor project, dose response (AID 602260). The format is functional. As to conditions: read-out: IC50_Mean. (In general: Fluorescence polarisation rises when a labelled molecule tumbles more slowly, as on binding a larger partner.)

Assay [2] concerns the target T1, Polyadenylate-binding protein 1. The experiment in a line: MLLE domain peptide-binding blockers, IC50 – biochemical, fluorescence polarization, FITC-PAM2 peptide, dose response (AID 602259). The format is functional. As to conditions: read-out: IC50_Mean.
Assay [3] concerns the target T2, Methionyl-tRNA synthetase, putative (Trypanosoma brucei brucei, UniProt Q38C91).
T2 sequence (Q38C91 whole entry): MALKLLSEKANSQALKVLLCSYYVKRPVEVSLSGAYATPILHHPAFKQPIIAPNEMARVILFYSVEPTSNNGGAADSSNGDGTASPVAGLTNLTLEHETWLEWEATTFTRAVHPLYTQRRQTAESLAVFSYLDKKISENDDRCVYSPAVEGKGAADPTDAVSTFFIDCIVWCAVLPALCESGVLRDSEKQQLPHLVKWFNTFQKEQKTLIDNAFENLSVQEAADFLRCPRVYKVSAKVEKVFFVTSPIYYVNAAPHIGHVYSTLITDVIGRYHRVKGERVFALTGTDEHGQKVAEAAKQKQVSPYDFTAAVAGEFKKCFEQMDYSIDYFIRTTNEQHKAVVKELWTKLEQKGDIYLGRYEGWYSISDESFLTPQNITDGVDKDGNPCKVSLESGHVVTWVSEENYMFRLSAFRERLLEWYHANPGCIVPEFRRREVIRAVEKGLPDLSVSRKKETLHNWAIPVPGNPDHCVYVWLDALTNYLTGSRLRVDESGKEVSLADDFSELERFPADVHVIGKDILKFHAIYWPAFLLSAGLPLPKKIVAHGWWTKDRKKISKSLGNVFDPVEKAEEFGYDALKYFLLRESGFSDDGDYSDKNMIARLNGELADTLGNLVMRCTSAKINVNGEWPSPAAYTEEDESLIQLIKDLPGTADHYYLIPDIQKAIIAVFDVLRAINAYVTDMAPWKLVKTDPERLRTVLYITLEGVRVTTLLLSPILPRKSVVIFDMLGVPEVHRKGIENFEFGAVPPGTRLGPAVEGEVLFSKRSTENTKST
The class given is functional, Trypanosoma brucei brucei strain 927/4 GUTat10.1.

Assay [4] is described as follows: Counterscreen for inhibitors of Trypanosoma brucei methionyl tRNA synthetase (MetRS): Luminescence-based cell-based high throughput dose response assay to identify compounds that are cytotoxic to Jurkat human T lymphocyte cells. The class given is functional.
For assay [5], the target named is T2, Methionyl-tRNA synthetase, putative. The class given is functional, Trypanosoma brucei brucei strain 927/4 GUTat10.1. The source holds these as a separate data set.
The nature of assay [6]: cells. The format is functional, cell-based.
A short description of assay [7]: cells. The format is functional, cell-based. The source holds these as a separate data set.
Assay [8] concerns Vero. The experiment in a line: mammalian cell viability reduction – secondary assay, cytotoxicity control for West Nile virus antiviral project, dose response (AID 1650). The class given is functional. As to conditions: Chlorocebus sabaeus.
Assay [9] can be described thus: microbe, parasite or virus in culture. The class given is functional. To be noted: Mycobacterium tuberculosis.
Assay [10] in a line: cells. The class given is functional.
The target of assay [11] is T3, Calpain-2 catalytic subunit (Sus scrofa, UniProt P43367).
T3 sequence (P43367 whole entry): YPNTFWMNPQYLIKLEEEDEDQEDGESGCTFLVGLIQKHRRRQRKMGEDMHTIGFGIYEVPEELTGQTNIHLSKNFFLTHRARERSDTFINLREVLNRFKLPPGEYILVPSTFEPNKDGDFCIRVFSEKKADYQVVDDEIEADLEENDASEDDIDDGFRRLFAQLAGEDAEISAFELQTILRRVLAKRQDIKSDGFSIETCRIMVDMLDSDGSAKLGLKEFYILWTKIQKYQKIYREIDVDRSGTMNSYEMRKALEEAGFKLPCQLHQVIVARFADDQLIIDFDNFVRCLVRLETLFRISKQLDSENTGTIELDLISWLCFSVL
Put plainly: m-calpain protease blockers, concentration series – biochemical, fluorogenic peptide substrate, dose response (AID 1420). The format is functional.

Assay [12] in a line: toxicity toward HepG2 liver cells – cell-based, plate reader, cherry-pick, antagonist series, cytotoxicity control, dose response (AID 743416). The format is functional.
Assay [13] can be described thus: blockers of bursicon-stimulated LGR2 cAMP reporter – cell-based, HEK293, CRE-luciferase reporter, cherry pick, set 2, dose response (AID 743343).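 Further: transfected cells were stimulated with diluted bursicon conditioned medium after compound addition.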 The format is functional. A general note: In a reporter assay the amount or activity of a reporter protein is the signal.
Assay [14] is described as follows: blockade of melanocortin 4 receptor signaling – cell-based, plate reader, cherry pick, counter-screen for LGR2 antagonist project, dose response (AID 743444).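 Further: transfected HEK 293 cells stimulated with alpha-MSH peptide; potency of inhibitors of the alpha-MSH evoked signal.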 The class given is functional. In general terms: Counterscreens check selectivity or assay interference.
The nature of assay [15]: viability loss in HEK293 cells – cell-based, plate reader, cherry-picked samples, cytotoxicity control, dose response (AID 743446). The class given is functional.
The target in assay [16] is Eukaryotic translation initiation factor 4E (Mus musculus, UniProt P63073). Put plainly: blockers of eIF4G binding by eIF4E – biochemical, TR-FRET, dose response (AID 855).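 Further: potency for disrupting eIF4E binding to eIF4GI seen as loss of FRET.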 The format is functional.
The subject of assay [17] is Vero. Put plainly: cells. The class given is functional. As to conditions: Chlorocebus sabaeus.
For assay [18], the target named is FAD-linked sulfhydryl oxidase ALR (Homo sapiens, UniProt P55789). The experiment in a line: ALR-catalysed DTT oxidation blockers – biochemical, H2O2 detection, luminescence, cherry-pick, dose response (AID 493248).
For the next assay, the target named is T4, Leucine aminopeptidase (Plasmodium falciparum 3D7, UniProt Q8IL11).
T4 sequence (Q8IL11 whole entry): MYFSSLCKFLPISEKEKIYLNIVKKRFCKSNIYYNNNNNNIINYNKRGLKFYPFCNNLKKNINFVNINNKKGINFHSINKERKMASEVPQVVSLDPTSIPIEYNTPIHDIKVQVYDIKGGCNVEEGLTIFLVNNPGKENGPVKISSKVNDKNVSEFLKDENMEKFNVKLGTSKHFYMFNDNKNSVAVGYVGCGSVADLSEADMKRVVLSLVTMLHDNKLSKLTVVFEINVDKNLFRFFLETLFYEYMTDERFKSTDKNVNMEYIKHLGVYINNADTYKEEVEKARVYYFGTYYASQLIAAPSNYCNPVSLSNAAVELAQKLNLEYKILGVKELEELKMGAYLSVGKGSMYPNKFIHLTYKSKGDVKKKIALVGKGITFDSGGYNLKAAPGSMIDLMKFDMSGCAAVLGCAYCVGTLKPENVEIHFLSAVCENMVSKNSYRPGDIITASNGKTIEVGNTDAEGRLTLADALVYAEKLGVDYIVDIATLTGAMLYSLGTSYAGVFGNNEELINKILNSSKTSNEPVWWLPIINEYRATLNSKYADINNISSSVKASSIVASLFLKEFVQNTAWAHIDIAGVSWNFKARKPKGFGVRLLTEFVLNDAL
Put plainly: P. falciparum M17LAP inhibitors, primary screen, biochemical, fluorogenic H-Leu-NHMec substrate, 1536-well (AID 1619). The class given is functional.

Assay [19] is described as follows: A549 cell cytotoxicity, dose response, cytotoxicity control, plate reader, cherry-pick, antagonist series (AID 743412). The format is functional, cell-based.
Assay [20] can be described thus: rise of 2N DNA cells, HeLa – IC50, dose response (AID 1117349). The class given is functional, cell-based.
Assay [21] can be described thus: rise of 4N DNA cells, HeLa – IC50, dose response (AID 1117351). The class given is functional, cell-based.
Assay [22] in a line: cytotoxicity toward HT-29 cells – cell-based, CellTiter-Glo luminescence, IC50, dose response (AID 1117330). The class given is functional.
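Wherever EC50 is given: agonist potency from rise in intracellular calcium fluorescence.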

T1 sequence (P11940 whole entry): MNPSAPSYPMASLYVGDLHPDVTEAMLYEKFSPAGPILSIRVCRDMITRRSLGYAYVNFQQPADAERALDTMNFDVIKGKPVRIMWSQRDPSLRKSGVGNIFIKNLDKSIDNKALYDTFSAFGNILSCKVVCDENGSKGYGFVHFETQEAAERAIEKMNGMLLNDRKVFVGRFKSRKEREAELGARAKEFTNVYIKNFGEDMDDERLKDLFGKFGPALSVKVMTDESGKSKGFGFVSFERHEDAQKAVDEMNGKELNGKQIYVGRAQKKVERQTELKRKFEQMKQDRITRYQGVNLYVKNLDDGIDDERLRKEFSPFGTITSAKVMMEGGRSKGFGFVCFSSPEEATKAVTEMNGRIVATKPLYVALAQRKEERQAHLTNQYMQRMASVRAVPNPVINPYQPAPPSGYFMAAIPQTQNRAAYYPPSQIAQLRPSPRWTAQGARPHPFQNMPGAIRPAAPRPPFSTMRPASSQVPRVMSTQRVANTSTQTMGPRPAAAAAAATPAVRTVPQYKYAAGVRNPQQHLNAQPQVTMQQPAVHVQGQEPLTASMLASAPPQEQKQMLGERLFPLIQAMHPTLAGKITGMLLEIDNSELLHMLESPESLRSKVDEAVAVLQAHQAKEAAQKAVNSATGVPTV
FAD-linked sulfhydryl oxidase ALR, sequence (P55789 whole entry): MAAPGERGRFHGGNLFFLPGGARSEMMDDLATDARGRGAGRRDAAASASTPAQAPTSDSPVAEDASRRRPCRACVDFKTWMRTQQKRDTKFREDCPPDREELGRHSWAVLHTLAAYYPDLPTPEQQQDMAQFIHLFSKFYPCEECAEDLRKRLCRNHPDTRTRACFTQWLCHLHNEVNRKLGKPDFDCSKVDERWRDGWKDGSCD
Eukaryotic translation initiation factor 4E, sequence (P63073 whole entry): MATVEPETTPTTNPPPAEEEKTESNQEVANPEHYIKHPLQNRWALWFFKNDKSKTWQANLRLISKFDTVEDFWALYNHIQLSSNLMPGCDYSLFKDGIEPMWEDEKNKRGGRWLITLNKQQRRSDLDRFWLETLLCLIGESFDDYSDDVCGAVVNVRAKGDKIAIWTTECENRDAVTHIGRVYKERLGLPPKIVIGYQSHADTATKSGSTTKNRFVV

`O=C(CSc1n[nH]c2c3ccccc3nc-2n1)Nc1ccc2c(c1)OCO2`: the IC50 in [1] was > 66 µM (inactive); in assay [2], > 66 µM (inactive); in assay [3], 4.39 µM (active); in [4], 83.3 µM (inactive); in [5] it was 1.57 µM (active).

Broadly, the EC50 is the midpoint of the concentration-response curve. As to `O=C(Cn1cnc([N+](=O)[O-])c1)NCCc1ccccc1`, the IC50 in “cells [6]” is > 29.9 µM (inactive). Besides, the EC50 in “cells [7]” is > 29.9 µM (inactive).

`Cc1ccc(NC(=O)CN2C(=O)CN=C(c3ccccc3)c3cc(Cl)ccc32)cc1`: the IC50 is 6.78 µM (active) in assay [3], 6.39 µM (active) in assay [4] and 2.82 µM (active) in [5].

Turning to `O=C(CCN1C(=O)/C(=C/c2ccccc2Cl)SC1=S)N1CCOCC1`, the CC50 in the assay on Vero [8] is 67.3 µM (active).

For `Oc1ccccc1-c1nnc(COc2ccccc2)o1`, in assay [9], the CC50 is > 40 µM (active). Also, the IC50 in the assay “cells [10]” is 8.84 µM (active).

As usually defined, the AC50 is the midpoint of the concentration-response curve, whichever way the signal moves. Consider `COC(=O)c1ccc2nc(NC(=O)C(C)(C)C)sc2c1`, for which the IC50 in [11] is on record as 24.1 µM (not active). Besides, the AC50 in [12] is > 52 µM (inactive); in assay [13], 5.77 µM (active); in assay [14], 5.69 µM (active); in assay [15], > 52 µM (inactive).

Consider `Cc1ccccc1Cn1ccc(NC(=O)c2nn(C)cc2[N+](=O)[O-])n1`, for which, in the assay with Vero [8], the CC50 is 12.1 µM (active).

Turning to `Cc1ccc(/C=C/C(O)=C2/C(=O)N(C)C3(C)CC2c2ccccc2O3)cc1` (stereo unspecified), the CC50 in the assay with Vero [8] is 41 µM (active); with Vero [17] it was 15.4 µM (active). Further, in assay [16], the IC50 was > 64 µM (inactive).

Turning to `O=C1CCCN1CCCNc1ncnc2c1[nH]c1ccc(Cl)cc12`, the AC50 in assay [18] was 0.943 µM (active). Further, the values for the IC50 in [3], in assay [4] and in assay [5] were 8.28 µM (active), 83.3 µM (inactive) and 4.36 µM (active), respectively.

Regarding `CCCN(CCC)CCCNC(=O)c1cc2cc3ccc(Cl)cc3nc2o1`, the CC50 in the assay with Vero [8] was > 100 µM (active).

On to `O=C(c1ccccc1)c1ccc2c(c1)N=C1CCCC(O)=C1C1c3ccccc3C(=O)N21` (stereo unspecified), for which, in assay [9], the CC50 was 28.9 µM (active).

For the molecule `O=C(O)CCc1nnc(SCC(=O)Nc2cccc(C(F)(F)F)c2)nc1O`, at Leucine aminopeptidase, the IC50 was 6.64 µM (active).

For the molecule `C[C@H]1CN([C@@H](C)CO)C(=O)Cc2cc(NS(=O)(=O)c3ccc(Cl)cc3)ccc2O[C@@H]1CN(C)Cc1ccccc1`, the AC50 in [19] was 13.1 µM (active); in assay [12], 16.9 µM (active); in assay [13] it was 31.5 µM (active); in assay [14] it was 38.7 µM (active); in assay [15], 29.6 µM (active).

Regarding `Clc1cccc(N/N=C(\Cc2nc3ccccc3[nH]2)c2ccccc2)c1`, the IC50 in assay [3] was 4.59 µM (active); in assay [4], 62.2 µM (inactive); in [5], 3.09 µM (active).

`NC(=O)c1cccc(-c2cc(Nc3ccc(OC(F)(F)F)cc3)ncn2)c1`: in [9], the CC50 is > 40 µM (active).

Regarding `CC(C)=CCNc1ncnc2c1ncn2[C@@H]1O[C@H](CO)[C@@H](O)[C@H]1O` [RIBOPRINE], the IC50 in [20] was > 10 µM (inactive); in assay [21], > 10 µM (inactive); in assay [22], > 20 µM (inactive).
